Source: patent US20240285594A1, “COMPOSITIONS AND METHODS FOR TREATING PAIN IN ANIMALS” (North Carolina State University, priority 2023, published 2024)

Assays:
cortisol = assay: Serum cortisol after surgical or sham castration of piglets (Part I, physiological assessment); type: in vivo; settings: 1 h post-castration, castrated piglets, compared to C (saline) and CL, FM 2.2 mg/kg intranasal, buffered lidocaine intra-inguinal
Experimental: A total of 197 Large White×Duroc cross male piglets from 35 litters were enrolled in the study (Table 1). Piglets were individually identified using ear tags (Allflex Global Piglet ear tags, Allflex Livestock Intelligence, Madison, WI), weighed and randomly allocated to one of eight treatment groups (FIG. 1).
Lidocaine was buffered by mixing 2 ml of 8.4% Sodium Bicarbonate to 20 ml of 2% lidocaine HCl injectable solution to achieve a pH of 6.8 (Lidocaine Hydrochloride, Covetrus, Dublin, Ohio, US). […] Piglets were held by both rear legs by one caretaker with the abdomen facing the individual administrating treatment. Buffered lidocaine was injected intra-inguinally (Picture 1) by a second caretaker using a ½ inch needle (Ideal® D3 20 Gauge, Neogen, Lansing, MI) inserted into a syringe (Prima Tech® 2 cc Bottle Mount Vaccinator, Prima Tech USA, Kenansville, NC). A total of 1.5 ml of buffered lidocaine per injection site was administered intramuscularly (IM) into each inguinal canal (left and right) at a 40-degree angle 5-7 cm from the scrotum and 2-3 cm from the abdominal wall. Piglets enrolled in the control treatment (C, S, CF, SF−T1: (C) Castration plus physiological saline (IM and IN; n=25); T2: (S) Sham plus physiological saline (IM and IN; n=25); T5: (CF) Castration plus flunixin (IN; n=25); T6: (SF) Sham plus flunixin (IN; n=24)) were handled in an identical manner and 1.5 ml of sterile saline was injected in the same two locations as described previously.
Immediately following intra-inguinal injection, piglets enrolled in the FM treatment groups were held in sternal recumbency by one individual and 2.2 mg/kg (Banamine®, Merck Animal Health, Madison, NJ, US) was administered in one nostril using was a MAD® nasal intranasal mucosal atomization device (Telefex Incorporated, Wayne, PA, US) attached to a Prima Tech® 0.5 cc bottle mount vaccinator. The same individual administered the treatment by gently holding the piglet's snout using their non-dominant hand to steady the head and administered the drug with the other hand. Piglets in the control group were handled in the same manner in an equivalent volume of 0.2 ml of sterile saline was administered as described above.
Castration was performed by one trained caretaker from the farm. Piglets were picked up, individually held by both hind legs with head down, and two vertical incisions were made through the skin of the scrotum over each testicle using a scalpel blade. Once the incisions were made, testicles were exposed, spermatic cords cut, and testicles were completely removed by traction. A sham castration was performed to mimic similar handling conditions in which piglets were picked up, held in the same manner, and had pressure applied to the scrotal area by the same individual responsible for castration.
Blood was collected 24 h prior to (−24 h), 1 h (1 h), and 24 h post castration (24 h, FIG. 2). Blood samples were collected using the technique described in other studies. The orbital sinus cavity was punctured using an Excel® disposable hypodermic needle 20G (Exel International, Quebec, Canada) and deposited into a 4 ml BD® red vacutainer serum tube (Med Vet International, Mettawa, IL). All tubes were maintained in a cooler and centrifuged (2,000×g for 15 min at 4° C.) no more than eight hours post-collection to separate serum. […]
Serum cortisol concentrations were quantified using a commercially available EIA kit (Arbor Assays DetectX Cortisol EIA Kit, Product #K003). […]

[1] = UPAPS behavioral pain scoring and rescue analgesia after castration (Part II); type: in vivo, piglets; settings: -1 h, 0 h and +3 h relative to castration; compared to C (saline)
Experimental: Behavior scoring was obtained in real-time by observing each piglet for 4-min continuously using Unesp-Botucatu pig acute pain scale (UPAPS). Each piglet was scored by one trained observer at the following timepoints: 1 h before castration (−1 h), immediately post-castration (0 h), and 3 h post-castration (+3 h, FIG. 3). The 4-min sampling time was obtained from the methodology previously validated. Treatments were masked, randomized, and applied to each piglet by a senior researcher. The Unesp-Botucatu UPAPS scale evaluates five behavioral items, with each item divided into four descriptive levels. A numerical score was designated from “0” to “3”, with a “0” representing normal behavior (free of pain) and “3” corresponding to pronounced behavioral deviation (severe pain). Therefore, for each timepoint, piglets may receive a score ranging from 0 (min) to 15 (max; Table 3). Total pain scores were then calculated for each piglet per timepoint. […] This is most referred to rescue analgesia in the literature; and was conducted for each behavioral assessment. Total counts were calculated for piglets identified as requiring or not requiring rescue analgesia by treatment and timepoint. […]

prostaglandin E2 (PGE2) = assay: Serum PGE2 after castration of piglets (Example 3); type: in vivo; settings: intra-inguinal lidocaine; any time point
Experimental: Pairwise comparisons of treatments at −24 h: P≥0.77. […] Pairwise comparisons of treatments at 24 h post-castration: P≥0.11.
The objective of this study was to evaluate the effects of intranasal flunixin and intra-inguinal lidocaine application on the castration associated inflammatory response in piglets, as described in Example 1.

Question: What does the source list for `CCN(CC)CC(=O)Nc1c(C)cccc1C` [Buffered lidocaine, lidocaine]?
Answer: cortisol concentrations (cortisol): no effect; cortisol concentrations (cortisol; listed as CL): not different; total UPAPS scores [1]: no effect; inflammation (PGE2) (prostaglandin E2 (PGE2)): did not mitigate inflammation
